Results on 9 compounds are retold here after patent US6521790B2, “Alkynyl amides and their therapeutic applications” (Abbott Laboratories, priority 2000, dated 2003).

The conditions of experiment [1]: reported in literature (Abbott, Tang, Palaty 1997); cited from earlier work.
For experiment [2] the following is noted: one study, compared with valproic acid; cited from earlier work.
Experiment [3] has as its system electrical shock induced seizures. As to the kind of experiment: Maximum Electrical Shock Method (MES). It counts as in vivo. The note with it: oral, male CD1 mice. From the text: Male CD1 mice (Charles River) weighing from 25-35 g were used. Mice were pretreated orally with compounds of the present invention prior to electrical stimulation. Mice were challenge by pulsed electrical stimulation (50 mA, 0.4 s duration, pulse width 0.5 ms, 60 pulses/sec) via corneal electrodes to induce seizure. The stimulation was delivered with an ECT Unit (Ugo Basile #7801). The electrodes of the unit were coated with electrocardiogram electrolyte (Signa Creme, Parker Labs #1708) to ensure good contact with the corneas. Mice were observed post-stimulation for the onset of seizures and death. […] Animals which gave a positive seizure response were observed an additional 30 seconds for death. […] The percent protection from seizures was calculated by dividing the number of protected mice by the total number of mice for the group. The percentage of mice protected from electrical shock induced seizures at doses of 600, 1200, 1800 and 2400 μmole/kg is illustrated in Table 3 for Example 1 and Example 6. The corresponding acid, (2R)-2-propyl-4-hexynoic acid, was also tested for comparison.

Experiment [4] has as its system pentylenetetrazole (PTZ) induced seizures. As to the kind of experiment: Latency to and protection against PTZ induced seizures in mice. In kind it is in vivo. The note with it: compound 1400 μmol/kg intra-peritoneally; for Time to Seizure: average time for PTZ induced seizure, male CD1 mice, PTZ 85 mg/kg s.c., observed 15 minutes; for Number of Mice Protected: number of mice out of ten that did not seize within 15 minutes after PTZ 85 mg/kg s.c. The procedure:
Male CD1 mice (Charles River, Portage, Mich.) weighing 25-35 g were used and during the experiment the mice were housed individually in clear polycarbonate cages for observation. For each experiment, ten mice were each pretreated intra-peritoneally with a compound of the present invention (1400 μmol/kg) prior to pentylenetetrazole (PTZ) (Sigma, St. Louis, Mo.) injection. Seizures were induced by the subcutaneous injection of PTZ (85 mg/kg) just below the nape of the neck. […] The data in Table 1 represents the average time for PTZ induced seizure. […] Control animals were not pretreated with a compound of the present invention but were injected with PTZ (85 mg/kg) subcutaneously.

The structures appear in SMILES notation.

In the case of `CCCC(F)(CCC)C(=O)O` [2-fluoro-2-propylpentanoic acid], in experiment [1], the “Anticonvulsant potency relative to VPA” value is given as “less potent than VPA”.
Take `CC#CCC(CCC)C(=O)O` (stereo not shown) [2-propyl-4-hexynoic acid]: the “Antiepileptic effect and duration of activity” value in experiment [2] is listed as “effective antiepileptic with a longer duration of activity”.
As for `CC#CC[C@@H](CCC)C(=O)O` [(2R)-2-propyl-4-hexynoic acid, reference compound], the “Percentage of Mice Protected Against Electrical Shock Induced Seizures” value (“Percentage” for short) is reported as 0% in experiment [3] (dose 600 μmole/kg), 0% in experiment [3] (dose 1200 μmole/kg), 0% in experiment [3] (dose 1800 μmole/kg) and 20% in experiment [3] (dose 2400 μmole/kg).
Consider `CC#CC[C@@H](CCC)C(=O)NCC(N)=O` [Example 1, (2R)-N-(2-amino-2-oxoethyl)-2-propyl-4-hexynamide], for which the “Time to Seizure” value in experiment [4] is 675 s. For the same compound, the “Number of Mice Protected” value in experiment [4] amounted to 5. Moreover, the “Percentage” value in experiment [3] (dose 600 μmole/kg) is on record as 0%; in experiment [3] (dose 1200 μmole/kg), 70%; in experiment [3] (dose 1800 μmole/kg), 90%; in experiment [3] (dose 2400 μmole/kg) it was 100%.
Take `CC#CC[C@@H](CCC)C(=O)N[C@H](C(N)=O)C(C)C` [Example 2, (2R)-N-[(1S)-1-(aminocarbonyl)-2-methylpropyl]-2-propyl-4-hexynamide]: in experiment [4], the “Time to Seizure” value was determined as 305 s and the “Number of Mice Protected” value is listed as 1.
The corresponding values for `CC#CC[C@@H](CCC)C(=O)N[C@@H](CC(C)C)C(N)=O` [Example 3, (2R)-N-[(1S)-1-(aminocarbonyl)-3-methylbutyl]-2-propyl-4-hexynamide] are 575 s and 4.
The corresponding values for `CC#CC[C@@H](CCC)C(=O)N[C@@H](C)C(N)=O` [Example 4, (2R)-N-[(1S)-2-amino-1-methyl-2-oxoethyl]-2-propyl-4-hexynamide] are 610 s and 6.
For the compound `CC#CC[C@@H](CCC)C(=O)N[C@H](C)C(N)=O` [Example 5, (2R)-N-[(1R)-2-amino-1-methyl-2-oxoethyl]-2-propyl-4-hexynamide], in experiment [4], the “Time to Seizure” value worked out at 525 s and the “Number of Mice Protected” value was 2.
In the case of `CC#CC[C@@H](CCC)C(N)=O` [Example 6, (2R)-2-propyl-4-hexynamide], in experiment [4], the “Time to Seizure” value is “No Seizures”. Moreover, in experiment [4], the “Number of Mice Protected” value is 10. The figures for the “Percentage” value in experiment [3] (dose 600 μmole/kg), in experiment [3] (dose 1200 μmole/kg) and in experiment [3] (dose 1800 μmole/kg) were 0%, 20% and 90%, respectively.
